Earlier results as cited in US11331266B1, “Antioxidant free, norepinephrine bitartrate injection in amber glass vials” (Medefil, Inc., priority 2020, dated 2022).

Conditions: literature, Int. J. Toxicol. 2002; 21 Suppl 2:19-94

SMILES: COc1ccc(O)c(C(C)(C)C)c1 [butylated hydroxyl anisole]
- organ damage: some renal and hepatic damage
